The results in this text go back to US10993983B2, “Cyclic peptide epitopes and small-molecule mimics for inducing autophagy” (TRUSTEES OF TUFTS COLLEGE, priority 2016, dated 2021).

Where no end group is shown, it is not given here. [ ]: non-standard residue; d: D form.

For one test, the system named is p62. The test can be described thus: p62 degradation assay (p62/actin immunoblot). Type of test: cell-based. On the set-up: key: −: activity not reported; 0: decreased vs. WT; +: similar to WT; ++: modest increase vs. WT; +++: significant increase vs. WT. The settings on record: for Activity (μM) 50, p62/actin assay activity: 50 μM; for Activity (μM) 100, p62/actin assay activity: 100 μM; for Activity (μM) 10, p62/actin assay activity: 10 μM; for Activity (μM) 20, p62/actin assay activity: 20 μM; for Activity (μM) 30, p62/actin assay activity: 30 μM. As for the experimental part:
(§1) Cells were treated with peptide in OPTI-MEM (Thermo Scientific) acidified with 0.15% (v/v) 6N HCl for 3 hour. Cells were rinsed with Dulbecco's phosphate buffered saline (PBS) and lysed in lysis buffer (20 mM HEPES, 150 mM NaCl, 1 mM EDTA, 1% Triton X-100, protease inhibitor cocktail (Roche) on ice for 1 hour. Cell lysates were centrifuged at 16,000 g for 10 min at 4° C. and analyzed by SDS-PAGE and transferred to PVDF membranes. The membranes were blocked 5% non-fat dry milk (NFDM) in PBST (PBS+0.05% Tween-20) for 1 hour, then incubated overnight at 4° C. with primary antibody in 5% NFDM in PBST. The blots were washed with PBST and incubated with HRP-conjugated secondary antibodies diluted in 5% NFDM in PBST for 1 hour at room temperature. Membranes were washed with PBST and visualized with SuperSignal West Pico Chemiluminescent Substrate (Thermo Scientific). Semi-quantitative results were obtained by noting the lowest concentration at which both p62 degradation and LC3-I to LC3-II conversion were observed.
(§2) Compounds 1-10 were evaluated using the assays described in Examples 4 and 5. Activity for each compound was measured in the p62 degradation assay and the LC3 marker assay as described herein. The activity at each concentration of peptide is given as, for example, (0/+) where 0 would be the p62/actin assay activity and + would be the LC3 assay activity.
Background: Immunoblotting shows a protein as a band on a membrane.

A further test deals with LC3. The test can be described thus: LC3 marker assay (LC3-I to LC3-II conversion immunoblot). It is filed as cell-based. More on the design: key: −: activity not reported; 0: decreased vs. WT; +: similar to WT; ++: modest increase vs. WT; +++: significant increase vs. WT. Particulars: for Activity (μM) 50, LC3 assay activity: 50 μM; for Activity (μM) 100, LC3 assay activity: 100 μM; for Activity (μM) 10, LC3 assay activity: 10 μM; for Activity (μM) 20, LC3 assay activity: 20 μM; for Activity (μM) 30, LC3 assay activity: 30 μM. How it is done: as §1, §2

Setting [1] is: Table 8, control compound T25, first symbol.
[2] abbreviates: Table 8, control compound T25, second symbol.
Where [3] appears, read: Table 3, control vehicle, first symbol of cell.
[4] abbreviates: Table 3, control vehicle, first symbol.
Setting [5] is: Table 7, control compound T25, first symbol.
The mark [6] stands for this setting: Table 3, control vehicle, second symbol of cell.
Setting [7] is: Table 3, control vehicle, second symbol.
[8] abbreviates: Table 7, control compound T25, second symbol.
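Further: HeLa cells.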

On to “RCNARCRIWR (H-R[dC]NAR[dC]RIWR; not fully specified (C-terminus); cysteine pairing not given here) [Compound 40]”, for which, in the test with p62 (setting [1]), the “Activity (μM) 50, p62/actin assay activity” value was 0/0 and the “Activity (μM) 100, p62/actin assay activity” value was 0/0. In the test on LC3 (setting [2]), the “Activity (μM) 50, LC3 assay activity” value is on record as 0/0 and the “Activity (μM) 100, LC3 assay activity” value is 0/0.

Consider VCNACFHIWH [Compound 4], for which the “Activity (μM) 10, p62/actin assay activity” value in the test on p62 (setting [3]) was 0/0. For the same sequence, in the test with p62 (setting [4]), the “Activity (μM) 20, p62/actin assay activity” value is recorded as 0/0; the “Activity (μM) 50, p62/actin assay activity” value was 0/0; the “Activity (μM) 100, p62/actin assay activity” value is reported as “+++”. In the test with p62 (setting [5]), the “Activity (μM) 30, p62/actin assay activity” value is listed as 0/0; the “Activity (μM) 50, p62/actin assay activity” value is “++/++”; the “Activity (μM) 100, p62/actin assay activity” value is given as “+++/+++”. The “Activity (μM) 10, LC3 assay activity” value in the test with LC3 (setting [6]) is reported as 0/0. In addition, in the test on LC3 (setting [7]), the “Activity (μM) 20, LC3 assay activity” value is 0/0; the “Activity (μM) 50, LC3 assay activity” value is recorded as 0/0; the “Activity (μM) 100, LC3 assay activity” value was “+”. Moreover, in the test on LC3 (setting [8]), the “Activity (μM) 30, LC3 assay activity” value is 0/0; the “Activity (μM) 50, LC3 assay activity” value is “++/++”; the “Activity (μM) 100, LC3 assay activity” value is “+++/+++”.

As to VCNACFHIWH [Compound 9], the “Activity (μM) 10, p62/actin assay activity” value with p62 (setting [3]) is given as 0/0. Moreover, in the test on p62 (setting [4]), the “Activity (μM) 20, p62/actin assay activity” value is 0/0 and the “Activity (μM) 50, p62/actin assay activity” value was 0/0. Further, the “Activity (μM) 10, LC3 assay activity” value in the test on LC3 (setting [6]) is recorded as 0/0. In addition, in the test with LC3 (setting [7]), the “Activity (μM) 20, LC3 assay activity” value was 0/0 and the “Activity (μM) 50, LC3 assay activity” value is listed as 0/0.

With VCNACFHIWH [Compound 10], the “Activity (μM) 10, p62/actin assay activity” value in the test with p62 (setting [3]) turned out to be 0. In addition, in the test on p62 (setting [4]), the “Activity (μM) 20, p62/actin assay activity” value is 0 and the “Activity (μM) 50, p62/actin assay activity” value is on record as 0. For the same sequence, the “Activity (μM) 10, LC3 assay activity” value in the test on LC3 (setting [6]) is “+”. In the test on LC3 (setting [7]), the “Activity (μM) 20, LC3 assay activity” value is “++” and the “Activity (μM) 50, LC3 assay activity” value is given as “+++”.

With VCNACFHIWH [Compound 52], in the test on p62 (setting [1]), the “Activity (μM) 50, p62/actin assay activity” value stood at 0 and the “Activity (μM) 100, p62/actin assay activity” value is given as 0. Besides, in the test on LC3 (setting [2]), the “Activity (μM) 50, LC3 assay activity” value was “+” and the “Activity (μM) 100, LC3 assay activity” value is given as “+”.

As to VCNACFHIWH [Compound 53], in the test on p62 (setting [1]), the “Activity (μM) 50, p62/actin assay activity” value was “+++” and the “Activity (μM) 100, p62/actin assay activity” value is listed as “+++”. Also, in the test on LC3 (setting [2]), the “Activity (μM) 50, LC3 assay activity” value is recorded as “++” and the “Activity (μM) 100, LC3 assay activity” value is listed as “++”.

As to VCNACFHIWH [Compound 54], in the test on p62 (setting [1]), the “Activity (μM) 10, p62/actin assay activity” value is reported as “+”; the “Activity (μM) 30, p62/actin assay activity” value is “++”; the “Activity (μM) 50, p62/actin assay activity” value is “++”. Further, in the test on LC3 (setting [2]), the “Activity (μM) 10, LC3 assay activity” value is on record as 0; the “Activity (μM) 30, LC3 assay activity” value was found to be 0; the “Activity (μM) 50, LC3 assay activity” value is listed as 0.

For the sequence VCNACFHIWH [Compound 55], in the test on p62 (setting [1]), the “Activity (μM) 10, p62/actin assay activity” value is reported as 0/0; the “Activity (μM) 30, p62/actin assay activity” value was “++”; the “Activity (μM) 50, p62/actin assay activity” value is on record as “+++”. In the test with LC3 (setting [2]), the “Activity (μM) 10, LC3 assay activity” value is on record as 0/0; the “Activity (μM) 30, LC3 assay activity” value was 0; the “Activity (μM) 50, LC3 assay activity” value came out at 0.

For VCNACFHIWH [Compound 56], in the test on p62 (setting [1]), the “Activity (μM) 10, p62/actin assay activity” value was 0/0; the “Activity (μM) 30, p62/actin assay activity” value was “+”; the “Activity (μM) 50, p62/actin assay activity” value was “+”. In the test with LC3 (setting [2]), the “Activity (μM) 10, LC3 assay activity” value was 0/0; the “Activity (μM) 30, LC3 assay activity” value is on record as 0; the “Activity (μM) 50, LC3 assay activity” value came to 0.

Regarding VCNACFHIWH [Compound 57], in the test with p62 (setting [1]), the “Activity (μM) 10, p62/actin assay activity” value is reported as 0/0; the “Activity (μM) 30, p62/actin assay activity” value is given as “+”; the “Activity (μM) 50, p62/actin assay activity” value is recorded as “+”. In addition, in the test on LC3 (setting [2]), the “Activity (μM) 10, LC3 assay activity” value is 0/0; the “Activity (μM) 30, LC3 assay activity” value is 0; the “Activity (μM) 50, LC3 assay activity” value turned out to be 0.
